Measured values reported in the supplement of paper PMC10307832.

How the values were obtained:
Experiment in all cases: relative viability (nuclei count vs DMSO), 5 days (fraction); higher = more cells survive
NVP-TAE684 + Alpelisib = compound: COc1cc(N2CCC(N3CCN(C)CC3)CC2)ccc1Nc1ncc(Cl)c(Nc2ccccc2S(=O)(=O)C(C)C)n1 [NVP-TAE684] + Cc1nc(NC(=O)N2CCC[C@H]2C(N)=O)sc1-c1ccnc(C(C)(C)C(F)(F)F)c1 [Alpelisib] (partner 2 µM)
Outline: (§1)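 Dosing by pin tool came one day after lung cancer cell lines were seeded in 1536-well plates, using either one drug or a fixed anchor-drug dose plus five library-drug doses (not always all listed) in √10 steps. After 5 days, nuclei were counted on 4× images. Relative viability is treated-well nuclei count divided by vehicle-well nuclei count, and values are medians of duplicate plates.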

NVP-TAE684 + Pictilisib = compound: COc1cc(N2CCC(N3CCN(C)CC3)CC2)ccc1Nc1ncc(Cl)c(Nc2ccccc2S(=O)(=O)C(C)C)n1 [NVP-TAE684] + CS(=O)(=O)N1CCN(Cc2cc3nc(-c4cccc5[nH]ncc45)nc(N4CCOCC4)c3s2)CC1 [Pictilisib] (partner 1 µM)
Outline: as §1

CUDC-101 + Pictilisib = compound: C#Cc1cccc(Nc2ncnc3cc(OC)c(OCCCCCCC(=O)NO)cc23)c1 [CUDC-101] + CS(=O)(=O)N1CCN(Cc2cc3nc(-c4cccc5[nH]ncc45)nc(N4CCOCC4)c3s2)CC1 [Pictilisib] (partner 1 µM)
Outline: as §1

[1] = compound: C1=CC=C2C(=C1)N=C(S2)C(C#N)C3=NC(=NC=C3)NCCC4=CN=CC=C4 + CCNC(=O)c1noc(-c2cc(C(C)C)c(O)cc2O)c1-c1ccc(CN2CCOCC2)cc1 [Luminespib] (partner 0.01 µM)
Outline: as §1

Cell Line | relative viability (NVP-TAE684 + Alpelisib; first compound 0.2 µM) | relative viability (NVP-TAE684 + Alpelisib; first compound 0.6325 µM) | relative viability (NVP-TAE684 + Alpelisib; first compound 2 µM) | relative viability (NVP-TAE684 + Pictilisib; first compound 0.2 µM) | relative viability (NVP-TAE684 + Pictilisib; first compound 0.6325 µM) | relative viability (NVP-TAE684 + Pictilisib; first compound 2 µM) | relative viability (CUDC-101 + Pictilisib; first compound 0.01 µM) | relative viability (CUDC-101 + Pictilisib; first compound 0.03162 µM) | relative viability (CUDC-101 + Pictilisib; first compound 0.1 µM) | relative viability (CUDC-101 + Pictilisib; first compound 0.3162 µM) | relative viability (CUDC-101 + Pictilisib; first compound 1 µM) | relative viability ([1]; first compound 0.005 µM) | relative viability ([1]; first compound 0.01581 µM) | relative viability ([1]; first compound 0.05 µM) | relative viability ([1]; first compound 0.1581 µM) | relative viability ([1]; first compound 0.5 µM)
IA-LM | 0.588 | 0.55 | 0.431 | 0.253 | 0.176 | 0.202 | 0.311 | 0.293 | 0.322 | 0.233 | 0.106 | – | – | – | – | –
LC-2-ad | 0.813 | 0.801 | 0.232 | 0.333 | 0.578 | 0.344 | 0.421 | 0.601 | 0.549 | 0.301 | 0.104 | 0.807 | 1.06 | 0.965 | 1.17 | 0.91
LCLC-97TM1 | 0.194 | 0.233 | 0.127 | 0.112 | 0.145 | 0.148 | 0.276 | 0.283 | 0.192 | 0.226 | 0.144 | 0.748 | 0.896 | 0.795 | 0.947 | 0.685
LCLC-103H | 0.99 | 0.986 | 0.995 | 0.71 | 0.567 | 0.451 | 0.586 | 0.574 | 0.614 | 0.501 | 0.492 | 0.773 | 0.854 | 0.905 | 0.944 | 0.96
LK-2 | 0.846 | 1.07 | 0.574 | 0.649 | 0.472 | 0.343 | 0.593 | 0.481 | 0.497 | 0.59 | 0.312 | 0.206 | 0.181 | 0.209 | 0.176 | 0.194
LOU-NH91 | 0.68 | 0.623 | 0.532 | 0.635 | 0.462 | 0.481 | 0.578 | 0.523 | 0.564 | 0.473 | 0.433 | 0.274 | 0.34 | 0.336 | 0.333 | 0.43
LU99A | 0.594 | 0.524 | 0.328 | 0.288 | 0.362 | 0.249 | 0.323 | 0.299 | 0.33 | 0.253 | 0.148 | 0.188 | 0.254 | 0.262 | 0.268 | 0.274
LXF-289 | 1.08 | 1.04 | – | 0.717 | 0.812 | 0.578 | 0.758 | 0.806 | 0.806 | 0.728 | 0.51 | 0.544 | 0.74 | 0.661 | 0.875 | 0.677
NCI-H23 | 0.856 | 0.62 | 0.484 | 0.518 | 0.422 | 0.377 | 0.518 | 0.549 | 0.457 | 0.435 | 0.464 | 0.211 | – | 0.204 | 0.225 | 0.215
NCI-H322M | 0.638 | 0.771 | 0.818 | 0.43 | 0.463 | 0.388 | 0.522 | 0.546 | 0.439 | 0.417 | 0.353 | 0.646 | 0.829 | 0.88 | 0.933 | 0.932
NCI-H358 | 0.751 | 0.478 | 0.203 | 0.305 | 0.261 | 0.219 | 0.354 | 0.37 | 0.349 | 0.397 | 0.258 | 0.248 | 0.465 | 0.296 | 0.475 | 0.185
NCI-H441 | 0.835 | 0.965 | 0.503 | 0.515 | 0.459 | 0.321 | 0.694 | 0.537 | 0.561 | 0.497 | 0.401 | – | 0.308 | 0.351 | 0.365 | 0.301
NCI-H460 | 0.607 | 0.412 | 0.113 | 0.333 | 0.362 | 0.295 | 0.375 | 0.358 | 0.315 | 0.453 | 0.287 | 0.0281 | 0.0289 | 0.031 | 0.0329 | 0.0322
NCI-H520 | 1.17 | 1.16 | 0.354 | 0.337 | 0.3 | 0.228 | 0.307 | – | 0.305 | 0.251 | 0.214 | 0.237 | 0.201 | 0.214 | 0.224 | 0.198
NCI-H522 | – | – | – | – | – | – | – | – | – | – | – | 1.07 | 1.05 | 1.12 | 1.15 | 1.12
NCI-H596 | 0.526 | 0.517 | 0.375 | 0.396 | 0.372 | 0.335 | 0.403 | 0.382 | 0.422 | 0.384 | 0.68 | 0.627 | 1.02 | 0.875 | 1.07 | 0.764
NCI-H647 | 1.32 | 1.1 | 0.377 | 0.429 | 0.381 | 0.473 | 0.446 | 0.512 | 0.576 | 0.491 | 0.361 | 0.208 | 0.262 | 0.169 | 0.235 | 0.286
NCI-H1299 | 0.974 | 1.1 | 0.992 | 0.601 | 0.707 | 0.364 | 0.978 | 0.839 | 0.766 | 0.653 | 0.412 | – | – | – | – | –
NCI-H1623 | – | – | – | – | – | – | – | – | – | – | – | 0.932 | 0.466 | 0.508 | 0.322 | 0.346
NCI-H1650 | – | – | – | 0.564 | 0.405 | 0.161 | 0.57 | 0.552 | 0.559 | 0.446 | 0.293 | 0.171 | 0.191 | 0.176 | 0.204 | 0.2
NCI-H1703 | 0.401 | 0.334 | 0.21 | 0.225 | 0.243 | 0.172 | 0.228 | 0.252 | 0.244 | 0.293 | 0.299 | – | – | – | – | –
NCI-H2342 | – | – | – | – | – | – | – | – | – | – | – | 0.555 | 0.708 | 0.794 | 0.776 | 0.841
SW 900 | – | – | – | – | – | – | – | – | – | – | – | 0.164 | 0.205 | 0.175 | 0.197 | 0.179
